Test results taken from patent US9409914B2, “Triazolo[4,5-d]pyrimidine derivatives” (Merck Patent GmbH, priority 2012, dated 2016).

Biological target: GCN2 (Homo sapiens, UniProt Q9P2K8)
Test: GCN2 enzyme assay (TR-FRET Lanthascreen, phosphorylation of GFP-eIF2alpha)
Format: biochemical
Conditions: 10 μM ATP, 80 nM GFP-eIF2alpha, 30 nM GCN2, room temperature
Source text: GCN2: Assay principle & conditions
This assay can quantificate the activity of the serin kinase GCN2 (general control non-derepressible-2).
This kinase is involved in the stress metabolism of cells. It is activated upon starvation (amino acid depletion). Its natural substrate is eIF2a (eukaryotic initiation factor 2 alpha subunit), a translation factor, which gets activated (phosphorylated) by GCN2 in case of an amino acid bottleneck in the cells. This in turn leads to a halt of the protein synthesis. Inhibition of GCN2 results in stopping this mechanism: The cell can not stop protein production upon “starvation” stress.
The assay is run in two steps: the enzymatic reaction and the detection step. In the first step GCN2 is incubated with 10 μM ATP and 80 nM of the GFP-labelled substrate eIF2alpha at room temperature.
The enzymatic reaction is stopped by addition of EDTA. The amount of phosphorylated eIF2alpha is determined by TR-FRET (Lanthascreen): A complex is formed consisting of antibody and GFP labelled phospho-eIF2a, which allows a FRET upon exitation at 340 nm.
The GCN2-activity is directly proportional to the ratio of fluorescence units at the emission wavelengthh 520 nm (phosphopeptide-sensitive wavelength=emission of GFP) to the units at 495 nm (reference wavelength=emission of Terbium-chelate).
Final Concentrations in the Enzymatic Reaction

Chain of GCN2 (Q9P2K8 whole entry, species assumed): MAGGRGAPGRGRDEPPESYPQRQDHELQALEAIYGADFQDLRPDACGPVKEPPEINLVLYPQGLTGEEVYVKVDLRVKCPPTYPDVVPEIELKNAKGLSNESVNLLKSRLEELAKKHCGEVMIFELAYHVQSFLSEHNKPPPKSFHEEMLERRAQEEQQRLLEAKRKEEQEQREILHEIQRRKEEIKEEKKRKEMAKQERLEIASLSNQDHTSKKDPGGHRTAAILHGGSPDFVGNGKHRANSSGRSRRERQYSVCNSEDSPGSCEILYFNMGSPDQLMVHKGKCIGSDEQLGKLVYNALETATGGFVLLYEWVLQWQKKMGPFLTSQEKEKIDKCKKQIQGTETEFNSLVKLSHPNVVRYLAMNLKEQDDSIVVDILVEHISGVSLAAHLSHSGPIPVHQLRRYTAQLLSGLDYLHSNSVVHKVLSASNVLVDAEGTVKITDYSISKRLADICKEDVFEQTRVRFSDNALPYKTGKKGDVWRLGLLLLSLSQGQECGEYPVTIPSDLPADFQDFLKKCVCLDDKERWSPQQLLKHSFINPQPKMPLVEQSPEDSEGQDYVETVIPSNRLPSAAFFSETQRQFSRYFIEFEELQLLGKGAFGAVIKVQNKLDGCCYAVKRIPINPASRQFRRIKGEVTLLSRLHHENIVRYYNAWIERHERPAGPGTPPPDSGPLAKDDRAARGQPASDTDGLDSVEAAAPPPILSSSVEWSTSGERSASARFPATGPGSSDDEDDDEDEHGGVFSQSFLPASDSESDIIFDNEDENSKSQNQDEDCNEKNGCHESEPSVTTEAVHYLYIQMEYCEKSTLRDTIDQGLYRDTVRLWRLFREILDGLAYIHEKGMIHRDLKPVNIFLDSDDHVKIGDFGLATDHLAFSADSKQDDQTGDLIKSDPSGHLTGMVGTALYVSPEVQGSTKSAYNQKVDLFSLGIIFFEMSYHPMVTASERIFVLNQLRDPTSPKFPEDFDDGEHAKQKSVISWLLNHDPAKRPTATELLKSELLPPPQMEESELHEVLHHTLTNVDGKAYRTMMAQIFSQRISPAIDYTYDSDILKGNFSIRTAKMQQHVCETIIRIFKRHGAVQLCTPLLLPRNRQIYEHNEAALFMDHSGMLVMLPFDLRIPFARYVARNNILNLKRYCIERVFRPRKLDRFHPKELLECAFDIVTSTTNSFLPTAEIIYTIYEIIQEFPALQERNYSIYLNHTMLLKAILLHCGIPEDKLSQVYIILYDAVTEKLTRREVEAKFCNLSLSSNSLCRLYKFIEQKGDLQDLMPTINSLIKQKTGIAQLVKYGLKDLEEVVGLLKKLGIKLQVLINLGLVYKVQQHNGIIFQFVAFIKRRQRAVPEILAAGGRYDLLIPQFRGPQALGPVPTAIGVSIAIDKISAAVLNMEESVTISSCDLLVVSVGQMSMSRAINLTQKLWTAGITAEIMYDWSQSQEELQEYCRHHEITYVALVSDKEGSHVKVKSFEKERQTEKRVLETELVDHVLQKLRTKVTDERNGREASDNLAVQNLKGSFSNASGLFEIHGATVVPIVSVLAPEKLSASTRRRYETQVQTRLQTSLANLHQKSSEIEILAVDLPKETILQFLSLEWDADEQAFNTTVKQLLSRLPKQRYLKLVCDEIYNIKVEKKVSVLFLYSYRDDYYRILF

SMILES: CCCCOc1ccc(-n2nnc3cnc(Nc4cnn(CC)c4)nc32)cn1 [Compound A57, [3-(6-butoxy-pyridin-3-yl)-3H-[1,2,3]triazolo[4,5-d]-pyrimidin-5-yl]-(1-ethyl-1H-pyrazol-4-yl)-amine]
- IC50: 300 to 3000 nM

SMILES: CCn1cc(Nc2ncc3nnn(-c4ccc(NC(C)=O)nc4)c3n2)cn1 [Compound A58, N-{5-[5-(1-ethyl-1H-pyrazol-4-ylamino)-[1,2,3]triazolo[4,5-d]pyrimidin-3-yl]-pyridin-2-yl}-acetamide]
- IC50: < 300 nM

SMILES: CCn1cc(Nc2ncc3nnn(-c4cnc5ccccc5c4)c3n2)cn1 [Compound A61, (1-ethyl-1H-pyrazol-4-yl)-(3-quinolin-3-yl-3H-[1,2,3]triazolo[4,5-d]pyrimidin-5-yl)-amine]
- IC50: < 300 nM

SMILES: CCn1cc(Nc2ncc3nnn(-c4ccnc(OC)c4)c3n2)cn1 [Compound A62, (1-ethyl-1H-pyrazol-4-yl)-[3-(2-methoxy-pyridin-4-yl)-3H-[1,2,3]triazolo[4,5-d]pyrimidin-5-yl]-amine]
- IC50: < 300 nM

SMILES: CCn1cc(Nc2ncc3nnn(-c4ccc(F)cc4)c3n2)cn1 [Compound A63, (1-ethyl-1H-pyrazol-4-yl)-[3-(4-fluoro-phenyl)-3H-[1,2,3]triazolo[4,5-d]pyrimidin-5-yl]-amine]
- IC50: < 300 nM

SMILES: CCOc1ccc(-n2nnc3cnc(Nc4cnn(-c5ccccc5)c4)nc32)cc1 [Compound A64, [3-(4-ethoxy-phenyl)-3H-[1,2,3]triazolo[4,5-d]pyrimidin-5-yl]-(1-phenyl-1H-pyrazol-4-yl)-amine]
- IC50: < 300 nM

SMILES: CCn1cc(Nc2ncc3nnn(-c4ccc(O)cc4)c3n2)cn1 [Compound A66, 4-[5-(1-ethyl-1H-pyrazol-4-ylamino)-[1,2,3]triazolo[4,5-d]pyrimidin-3-yl]-phenol]
- IC50: < 300 nM

SMILES: CCn1cc(Nc2ncc3nnn(-c4ccc(F)cc4C#N)c3n2)cn1 [Compound A72, 2-[5-(1-ethyl-1H-pyrazol-4-ylamino)-[1,2,3]triazolo[4,5-d]pyrimidin-3-yl]-5-fluoro-benzonitrile]
- IC50: 300 to 3000 nM

SMILES: CN1CCC(n2cc(Nc3ncc4nnn(-c5ccc(F)cc5C#N)c4n3)cn2)CC1 [Compound A74, 5-fluoro-2-{5-[1-(1-methyl-piperidin-4-yl)-1H-pyrazol-4-ylamino]-[1,2,3]triazolo[4,5-d]pyrimidin-3-yl}-benzonitrile]
- IC50: 300 to 3000 nM

SMILES: COc1cc(-n2nnc3cnc(Nc4cnn(C5CCOCC5)c4)nc32)ccn1 [Compound A78, [3-(2-methoxy-pyridin-4-yl)-3H-[1,2,3]triazolo[4,5-d]pyrimidin-5-yl]-[1-(tetrahydro-pyran-4-yl)-1H-pyrazol-4-yl]-amine]
- IC50: < 300 nM

SMILES: c1cnc2cc(-n3nnc4cnc(Nc5cnn(C6CCOCC6)c5)nc43)ccc2c1 [Compound A86, (3-quinolin-7-yl-3H-[1,2,3]triazolo[4,5-d]pyrimidin-5-yl)-[1-(tetrahydro-pyran-4-yl)-1H-pyrazol-4-yl]-amine]
- IC50: < 300 nM

SMILES: CCOc1ccc(-n2nnc3cnc(Nc4cnn(CCC(C)C)c4)nc32)cc1 [Compound A88, [3-(4-ethoxy-phenyl)-3H-[1,2,3]triazolo[4,5-d]pyrimidin-5-yl]-[1-(3-methyl-butyl)-1H-pyrazol-4-yl]-amine]
- IC50: < 300 nM

SMILES: CCn1cc(-n2nnc3cnc(Nc4cnn(CCC(C)C)c4)nc32)cn1 [Compound A89, [3-(1-ethyl-1H-pyrazol-4-yl)-3H-[1,2,3]triazolo[4,5-d]pyrimidin-5-yl]-[1-(3-methyl-butyl)-1H-pyrazol-4-yl]-amine]
- IC50: < 300 nM

SMILES: CC(C)CCn1cc(Nc2ncc3nnn(-c4ccc5ncccc5c4)c3n2)cn1 [Compound A90, [1-(3-methyl-butyl)-1H-pyrazol-4-yl]-(3-quinolin-6-yl-3H-[1,2,3]triazolo[4,5-d]pyrimidin-5-yl)-amine]
- IC50: < 300 nM

SMILES: c1cnc2cc(-n3nnc4cnc(Nc5cnn(C6CCOCC6)c5)nc43)ccc2n1 [Compound A94, (3-quinoxalin-6-yl-3H-[1,2,3]triazolo[4,5-d]pyrimidin-5-yl)-[1-(tetrahydro-pyran-4-yl)-1H-pyrazol-4-yl]-amine]
- IC50: < 300 nM

SMILES: O[C@H]1CC[C@@H](n2cc(Nc3ncc4nnn(-c5ccc(Cl)c(F)c5)c4n3)cn2)CC1 [Compound A102, 4-{4-[3-(4-chloro-3-fluoro-phenyl)-3H-[1,2,3]triazolo[4,5-d]pyrimidin-5-ylamino]-pyrazol-1-yl}-cyclohexanol]
- IC50: 300 to 3000 nM

SMILES: O[C@H]1CC[C@@H](n2cc(Nc3ncc4nnn(-c5ccc6nccnc6c5)c4n3)cn2)CC1 [Compound A105, 4-[4-(3-quinoxalin-6-yl-3H-[1,2,3]triazolo[4,5-d]pyrimidin-5-ylamino)-pyrazol-1-yl]-cyclohexanol]
- IC50: < 300 nM

SMILES: COc1ccc(-n2nnc3cnc(Nc4cnn([C@H]5CC[C@H](O)CC5)c4)nc32)cn1 [Compound A109, 4-{4-[3-(6-methoxy-pyridin-3-yl)-3H-[1,2,3]triazolo[4,5-d]pyrimidin-5-ylamino]-pyrazol-1-yl}-cyclohexanol]
- IC50: 300 to 3000 nM

SMILES: Fc1ccc(-n2nnc3cnc(Nc4cnn(C5CCOCC5)c4)nc32)cc1Cl [Compound A110, [3-(3-chloro-4-fluoro-phenyl)-3H-[1,2,3]triazolo[4,5-d]pyrimidin-5-yl]-[1-(tetrahydro-pyran-4-yl)-1H-pyrazol-4-yl]-amine]
- IC50: 300 to 3000 nM

SMILES: c1cnc2cc(-n3nnc4cnc(Nc5cnn(C6COC6)c5)nc43)ccc2c1 [Compound A112, (1-oxetan-3-yl-1H-pyrazol-4-yl)-(3-quinolin-7-yl-3H-[1,2,3]triazolo[4,5-d]pyrimidin-5-yl)-amine]
- IC50: 300 to 3000 nM

SMILES: COC(=O)c1ccc(-n2nnc3cnc(Nc4cnn(C5CCOCC5)c4)nc32)cc1 [Compound A113, 4-{5-[1-(tetrahydro-pyran-4-yl)-1H-pyrazol-4-ylamino]-[1,2,3]triazolo[4,5-d]pyrimidin-3-yl}-benzoic acid methyl ester]
- IC50: < 300 nM

SMILES: Fc1cc(-n2nnc3cnc(Nc4cnn(CCN5CCOCC5)c4)nc32)ccc1Cl [Compound A114, [3-(4-chloro-3-fluoro-phenyl)-3H-[1,2,3]triazolo[4,5-d]pyrimidin-5-yl]-[1-(2-morpholin-4-yl-ethyl)-1H-pyrazol-4-yl]-amine]
- IC50: 300 to 3000 nM

SMILES: Fc1ccc(-n2nnc3cnc(Nc4cnn(C5CCOCC5)c4)nc32)cc1F [Compound A116, [3-(3,4-difluoro-phenyl)-3H-[1,2,3]triazolo[4,5-d]pyrimidin-5-yl]-[1-(tetrahydro-pyran-4-yl)-1H-pyrazol-4-yl]-amine]
- IC50: 300 to 3000 nM

SMILES: Fc1cccc(-n2nnc3cnc(Nc4cnn(CCCC5CCNCC5)c4)nc32)c1 [Compound A129, [3-(3-fluoro-phenyl)-3H-[1,2,3]triazolo[4,5-d]pyrimidin-5-yl]-[1-(3-piperidin-4-yl-propyl)-1H-pyrazol-4-yl]-amine]
- IC50: < 300 nM

SMILES: O=S(=O)(c1ccc(-n2nnc3cnc(Nc4cnn(CCn5cccn5)c4)nc32)cc1)N1CCCC1 [Compound A133, [1-(2-pyrazol-1-yl-ethyl)-1H-pyrazol-4-yl]-{3-[4-(pyrrolidine-1-sulfonyl)-phenyl]-3H-[1,2,3]triazolo[4,5-d]-pyrimidin-5-yl}-amine]
- IC50: < 300 nM

SMILES: c1cnc2cc(-n3nnc4cnc(Nc5cnn(CCn6cccn6)c5)nc43)ccc2c1 [Compound A134, [1-(2-pyrazol-1-yl-ethyl)-1H-pyrazol-4-yl]-(3-quinolin-7-yl-3H-[1,2,3]triazolo[4,5-d]pyrimidin-5-yl)-amine]
- IC50: 300 to 3000 nM

SMILES: NS(=O)(=O)c1ccc(-n2nnc3cnc(Nc4cnn(CCn5cccn5)c4)nc32)cc1 [Compound A135, 4-{5-[1-(2-pyrazol-1-yl-ethyl)-1H-pyrazol-4-ylamino]-[1,2,3]triazolo[4,5-d]pyrimidin-3-yl)-benzenesulfonamide]
- IC50: < 300 nM

SMILES: CN1CCC(n2cc(Nc3ncc4nnn(-c5ccc(S(=O)(=O)N6CCCC6)cc5)c4n3)cn2)CC1 [Compound A136, [1-(1-methyl-piperidin-4-yl)-1H-pyrazol-4-yl]-{3-[4-(pyrrolidine-1-sulfonyl)-phenyl]-3H-[1,2,3]triazolo[4,5-d]pyrimidin-5-yl}-amine]
- IC50: 300 to 3000 nM

SMILES: COc1ccc(-n2nnc3cnc(Nc4cnn([C@H]5CC[C@@H](O)CC5)c4)nc32)cn1 [Compound A137, 4-{4-[3-(6-methoxy-pyridin-3-yl)-3H-[1,2,3]triazolo[4,5-d]pyrimidin-5-ylamino]-pyrazol-1-yl}-cyclohexanol]
- IC50: 300 to 3000 nM

SMILES: COc1ccc(-n2nnc3cnc(Nc4cnn(N5CCOCC5=O)c4)nc32)cc1 [Compound A138, 4-{4-[3-(4-methoxy-phenyl)-3H-[1,2,3]triazolo[4,5-d]pyrimidin-5-ylamino]-pyrazol-1-yl}-morpholin-3-one]
- IC50: < 300 nM

SMILES: CN1CCC(n2cc(Nc3ncc4nnn(-c5ccn(C)n5)c4n3)cn2)CC1 [Compound A139, [1-(1-methyl-piperidin-4-yl)-1H-pyrazol-4-yl]-[3-(1-methyl-1H-pyrazol-3-yl)-3H-[1,2,3]triazolo[4,5-d]pyrimidin-5-yl]-amine]
- IC50: 300 to 3000 nM

SMILES: CCOc1ccc(-n2nnc3cnc(Nc4cc(-c5cnn(C)c5C)n[nH]4)nc32)cc1 [Compound A140, (1′,5′-dimethyl-1H,1′H-[3,4′]bipyrazolyl-5-yl)-[3-(4-ethoxy-phenyl)-3H-[1,2,3]triazolo[4,5-d]pyrimidin-5-yl]-amine]
- IC50: 300 to 3000 nM
